The text below walks through data of patent publication US12121503B2, “Antiviral treatments” (priority 2006, dated 2024).

Data set [1] has as its system influenza virus. To be noted: cited from earlier work.
For data set [2], the system named is Influenza A/Duck/MN/152518 (H5N1). It counts as in vivo, BALB/c mice.
Data set [3] is described as follows: Phase I clinical study in healthy human volunteers, plasma concentration after intravenous and intramuscular administration.
The next data set deals with influenza infection. To be noted: oral administration over a period of days; cited from earlier work.
For data set [4], the system named is influenza virus. To be noted: cited from earlier work. This is another data set of the same source.
The nature of data set [5]: Toxicity controls: uninfected mice treated in parallel. The conditions noted are these: for Tox Controls Surv/Total: 21 days.
Data set [6] in a line: Plasma levels after i.v. administration in mice.
Setting [7] is: intramuscular, healthy human volunteers.

Values joined by “and” are separate entries in the source; they are usually repeats but may differ in a detail not shown here. Identical values can stand only once. Marks after values point to notes of the source that are not given here.

Take `CCC(CC)C(NC(C)=O)[C@@H]1[C@H](O)[C@@H](C(=O)O)C[C@H]1NC(=N)N` (stereo partly drawn) [Peramivir, (1S,2S,3R,4R)-3-(1-Acetamido-2-ethylbutyl)-4-guanidino-2-hydroxycyclopentane-carboxylic acid]: the “Activity against the influenza virus in experimentally infected mice” value in the data set with influenza virus [1] is reported as “marked activity”. Also, the “Infected, Treated Mice Surv/Total” value in data set [2] (21 days) is 10/10** and 5/10. In addition, in data set [2] (mouse, in vivo), the “Effect on lung parameters” value is given as “moderately inhibitory”; the “Infected animals surviving the infection” value was determined as 100%; the “Protection of mice (prevention of deaths, lessening of lung consolidation, inhibition of lung virus titers)” value is “significantly protective”. In data set [3] (human, plasma, iv), this compound had a half-life of over 12 h. In addition, in data set [3] (setting [7]), the “Kinetics of plasma concentrations” value was “linear kinetics” and the Plasma half life entry is “unusually extended”. Also, the “Kinetics of plasma concentrations” value in data set [3] (intravenous, healthy human volunteers) is on record as “linear kinetics”. For the same compound, the “Therapeutic effect on influenza infection in humans” value in the data set on influenza infection is “suboptimal therapeutic effect”. For the same compound, in the data set with influenza virus [4], the “Activity against the influenza virus in vitro” value is on record as “marked activity”. The “Tox Controls Surv/Total” value in data set [5] (3 mg/kg i.v.) is 3/3. Moreover, the “Tox Controls Surv/Total” value in data set [5] (10 mg/kg i.v.) was 3/3. Further, the “Tox Controls Surv/Total” value in data set [5] (20 mg/kg i.v.) is listed as 3/3. Also, in data set [5] (i.v., run in parallel), the “Survival and weight of toxicity controls” value is “all survived and gained weight”; the “Tolerability in toxicity controls” value was “well tolerated”. For the same compound, in data set [6], the “Time at relatively high levels in the plasma” value is recorded as “at least 6 hours”.

For orientation: half-life means the time needed for the level to fall by half in the phase considered.
